“Also recorded” adds a separate entry of the source.
Columns and labels:
HPV 11 = test: In vitro potency against dsDNA viruses: HPV 11; format: cell-based
[1] = RPTEC DNA replication (BrdU), metabolic activity (WST-1), proliferation (xCELLigence); format: cell-based, human; settings: human; BKV-infected RPTECs; read-out: CC-90 (BrdU incorporation reduced to approximately 10% of untreated infected cells)
Description: (§1) RPTECs were infected with BKV(Dunlop). CMX001 was added before and 2 h postinfection (hpi). Cells and supernatants were harvested 24-72 hpi. BKV replication was examined by TaqMan assays, western blotting, IF staining and viability of RPTECs was examined by WST-1 assay, BrdU incorporation and a TaqMan assay.
(§2) To use more sensitive assays, host cell DNA replication and metabolic activity using BrdU incorporation and WST-1 assays in uninfected RPTECs were used. Addition of CMX001 reduced both DNA replication (FIG. 2a) and metabolic activity (FIG. 2b) of uninfected RPTECs in a concentration-dependent manner. Compared to untreated RPTECs, CMX001 at 0.08 to 10 μM decreased DNA replication by 15% to 93% and the metabolic activity by 41% to 88%, respectively.
(§3) The mitocondrial metabolic activity was monitored by the colorimetric WST-1 assay (Roche, Rotkreuz, Switzerland) measuring reduction of the Tetrazolium salt, WST-1, by mitochondrial dehydrogenases. DNA synthesis was quantified by colorimetric measurement of BrdU incorporation into DNA using the “Cell proliferation ELISA, BrdU” kit (Roche). The attachment and proliferation of the cells was measured as impedance using E-plates and the xCelligence system (Roche). In order for the RPTECs to attach and proliferate on the E-plates, the plates were first coated with fibronectin. Next the background impedance of the plates was monitored by addition of 100 μl medium to each well, before the plate was connected to the system and checked in the cell culture incubator for proper electrical-contacts. Subsequently, 100 μl cell suspension containing the indicated cell numbers was seeded. To determine the effect of BKV infection and CMX001 treatment, about 24 h after seeding 150 μl of the media was replaced with fresh media with or without purified BKV-Dunlop in the presence or absence of CMX001 (final concentration of 0.31 μM). The cells were grown for 96 h and impedance was measured every 15 minutes for the first 6 h then every 30 minutes. Impedance was expressed as an arbitrary unit called the Cell Index.

RPTECs = test: as above; format: cell-based, human; settings: for reduction of rate of RPTEC proliferation (xCelligence): CMX001 0.31 μM, 48 h postexposure
Description: as §1, §2, §3

JCV [2] = test: Patients with JC viral infections treated with CMX001; format: in vivo, human
Description: A study has been conducted on patients with various JC viral infections and diseases associated with JC virus. After these patients are treated with CMX001, the patients have shown significant improvements.

JCV [3] = test: Established JCV infection of SVG cells, in situ DNA hybridization; format: cell-based, JC virus; settings: 0.1 μM, four days
vaccinia virus = settings: CMX001 200 mg initial dose plus other therapies (MMWR 2009); cited from earlier work

CCCCCCCCCCCCCCCCOCCCOP(=O)(O)CO[C@H](CO)Cn1ccc(N)nc1=O [CMX001, Hexadecyloxypropyl-cidofovir]
EC50 (HPV 11; A-431, A431): 17 µM
Enhanced Activity (HPV 11; CMX001 versus cidofovir EC50): 42
CC90 [1]: 10 µM
reduction of rate of RPTEC proliferation (xCelligence) (RPTECs; exponentially growing BKV infected cells): approximately 35%
reduction of rate of RPTEC proliferation (xCelligence) (RPTECs; exponentially growing uninfected cells): approximately 25%
SI-90 (RPTECs; estimated, RPTECs): 62.5
JCV Viral Load, Urine (JCV [2]; Sub 1, D7): D7: 557 copies/mL
JCV Viral Load, CSF (JCV [2]; Sub 1, ~5 wks 2 mg/kg, D32 (Pre: 306)): D32: <300 copies/mL
JCV Viral Load, CSF (JCV [2]; Sub 3, 4 days (2 doses) 4 mg/kg, Post (Pre: 518)): Post: <500 copies/mL
JCV Viral Load, Blood (JCV [2]; Sub 4, EOT (Pre: 148)): EOT: 261 copies/mL
JCV Viral Load, CSF (JCV [2]; Sub 4, ~2.5 wks 4 mg/kg, EOT (Pre: 16,474)): EOT: 1070 copies/mL
JCV Viral Load, Blood (JCV [2]; Sub 5, ongoing ~3 wks 4 mg/kg, D7 (Pre: 1800)): D7 500 copies/mL
Clinical Comment (JCV [2]; individual patients Sub 1-5 during CMX001 treatment): During treatment, the patient regained swallowing; also recorded: became undetectable (<300 copies/mL) in the CSF
elimination of JCV positive cells, normalized to total cell number (JCV [3]): 94%
time until virus cultures at the vaccination site became negative for vaccinia virus (vaccinia virus): ≤ 5 days

Reference: patent US20150141375A1 (priority 2009, published 2015)
